Results from patent US9155723B2, “Anti-CXCR4 as a sensitizer to cancer therapeutics” (THE GENERAL HOSPITAL CORPORATION, priority 2010, dated 2015).
“Also recorded” adds a separate entry of the source. Read-outs that look alike come from different tables or passages of the source.

How the values were obtained:
[1] = test system: CXCL12; conditions: cited from earlier work
[2] = test system: 54A human lung tumors; conditions: AMD3100 osmotic pumps alone for 2 weeks, no irradiation; 54A tumors
From the text: (§1) 54A human lung tumors were xenografted in male athymic NCr/Sed nude (nu/nu) mice, and MCa8 mouse mammary carcinomas were implanted in female syngeneic FVB mice (both subcutaneously in the hind limb; refs. 3, 11). To detect specific BMDC populations in tumors (i.e., Tie2^+CD11b^− EPCs and Tie2^+CD11b^+ TEMs), irradiated wild-type FVB mice were irradiated with 9 Gy of whole-body irradiation (WBI) followed by restorative bone marrow transplantation (BMT) from Tie2-GFP-FVB donors to create chimeric wild-type/Tie2-GFP-BMT mice (3). MCa8 tumors were implanted in these mice 6 weeks post-BMT.
(§2) Tumor size was measured with a caliper at least thrice a week. When a tumor reached 5.5 mm in mean diameter, the mouse was randomized to a treatment group. Tumors were γ-irradiated using the same dose delivered either locally alone or locally plus a sublethal WBI dose of 6 Gy. […] Unsorted BMDCs (from femurs and tibias of one tumor- and treatment-naïve donor to two recipients) or fluorescence-activated cell-sorted Sca1^−CD11b^+ (150,000-200,000 cells) or Sca1^+CD11b^+ (25,000-50,000) BMDCs (from one donor to one recipient) were i.v. infused in mice receiving LI plus WBI. […] Therapeutic efficacy was measured as the time taken for tumors to grow to 7.5 mm in diameter (i.e., 2.5-fold increase compared with the pretreatment volume).

[3] = test system: MCa8 mouse mammary carcinomas; conditions: AMD3100 osmotic pumps alone for 2 weeks, no irradiation; MCa8 tumors
From the text: as §1, §2

[4] = test system: TRAMP-C1 prostate tumors
Description: TRAMP-C1 tumors were implanted s.c. in male C57BL/6 mice, and E0771 tumors were implanted s.c. in female C57BL/6 mice after BMT and recovery and/or after BMT and Mx-Cre recombination (n=5-6 mice) (SI Materials and Methods). […] Lung tissue was isolated from mice 2-4 wk after removal of the primary tumor.
(§3) AMD3100 was delivered by s.c. Alzet pumps containing 10 mg/mL AMD3100 in PBS at a dose of 60 μg/day, and pumps with PBS only were used as a control. The pumps were replaced every 2 wk.
Mice ranging from 8 to 22 wk old [due to prior bone marrow transplantation (BMT) and/or recombination procedures] were used. […] All experiments were performed at least twice. Metastatic tumor volume was measure by the formula: V=small diameter×long diameter×number of microscopic metastases.

[5] = test system: E0771 mammary tumors
Description: as §3
(§4) Primary tumor tissues were fixed and frozen. Sections were stained with rat antibodies against mouse CD11b, MECA 32, Gr-1 (BD Pharmingen), and F4/80 (Serotec). Cy3- or FITC-conjugated secondary antibodies were used for the detection of signals by confocal microscopy. Slides were counterstained with DAPI for nuclear staining. The number of cells was quantified by measuring the area occupied by immunostained mononuclear cells normalized by the area of DAPI-stained nuclei (i.e., unitless). Phopho-p38 MAPK level was measured by Western blotting.
(§5) Primary tumor tissues were fixed in 4% paraformaldehyde at 4° C. for 2 h, dehydrated in 30% sucrose overnight, and embedded in optimal cutting temperature (OCT) compound in frozen samples for immunofluorescence histological analyses.

[6] = test system: TRAMP-C1 prostate tumors; remark: listed apart in the source
Description: as §3, §4, §5

[7] = test system: CD11b+ myeloid BMDCs; assay: In vitro migration assay (Boyden chamber), CD11b+ myeloid BMDCs; assay type: cell-based, mouse
Description: (§6) Bone marrow cells were collected in heparin-mixed PBS. The cellular filtrate was washed and a layer containing mononuclear BM cells was separated using Histopaque-1083 (Sigma). For the migration assay, BM cells were separated by CD11b, F4/80, or Gr-1 magnetic microbeads (MACS-beads; Miltenyi Biotech) from VEGFR1TK+/+ and VEGFR1TK−/− mice as per manufacturer's protocol. These cells were incubated with recombinant proteins for migration assays
(§7) The migration of mononuclear CD11b+ BMDCs (2×10^6 cells per mL), F4/80+ BMDCs (8×10^5 cells per mL), and Gr-1+ BMDCs (8×10^5 cells per mL) was evaluated using a chemotaxis Boyden chamber (Neuroprobe). The upper and lower wells were separated by a […] pore size polyvinylpyrrolidone-free polycarbonate filter (Nucreopore; Costar). […] A 50-μl aliquot of the cell suspension was seeded in the upper wells and incubated for 3 h at 37° C. with 5% CO2. The number of cells that migrated through the membrane was counted.
To reveal the mechanism of action of VEGFR1 and CXCR4 in myeloid BMDCs, bone marrow cells were harvested from C57BL/6 and VEGFR1 TK−/− mice and purified mononuclear myeloid BMDCs using magnetic separation for CD11b+ cells.

[8] = test system: Gr-1+ BMDCs; conditions: in vitro
Description: as §6, §7

**Q.** Which “circulating CXCL12” value ([1]; advanced sarcoma, P < 0.01) does the source give for `CNC(=O)c1cc(Oc2ccc(NC(=O)Nc3ccc(Cl)c(C(F)(F)F)c3)cc2)ccn1` [sorafenib] here?
**A.** therapy increases

**Q.** What does the source list for `c1cc(CN2CCCNCCNCCCNCC2)ccc1CN1CCCNCCNCCCNCC1` [AMD3100, 1,1′-[1,4-phenylene-bis(methylene)]-bis-1,4,8,11-tetraazacyclotetradecane]?
**A.** tumor growth [2]: did not affect tumor growth; tumor growth [3]: did not affect tumor growth; lung metastatic burden after primary tumor resection ([4]; BMT-VEGFR1^TK−/− mice, TRAMP-C1): significantly reduced metastatic burden; growth of established tumors ([4]; intervention setting, growth from 4 mm to ~1 cm, established TRAMP-C1): less substantial growth delay; TAM infiltration ([5]; AMD3100 alone): did not affect the TAM infiltration; number of total myeloid BMDCs in tumor ([5]; AMD3100 alone): decreased the number of total myeloid BMDCs; microvascular density (MVD) ([5]; AMD3100 alone, prevention setting): decreased MVD; Gr-1+ myeloid BMDC infiltration ([5]; irrespective of VEGFR1-TK status in BMDCs): decreased Gr-1+ myeloid BMDCs; also recorded: decreases Gr-1^+ BMDC infiltration; TAM infiltration ([6]; AMD3100 alone, TRAMP-C1): did not affect the TAM infiltration; number of total myeloid BMDCs in tumor ([6]; AMD3100 alone, TRAMP-C1): not in TRAMP-C1 tumors; Gr-1+ myeloid BMDC infiltration ([6]; irrespective of VEGFR1-TK status in BMDCs, TRAMP-C1): decreased Gr-1+ myeloid BMDCs; also recorded: decreases Gr-1^+ BMDC infiltration; number of Gr-1+ BMDCs during early tumor growth ([6]; small (4-mm) tumors, preventive setting, TRAMP-C1 model, 8-wk-old mice): significantly decreased the number of Gr-1+ BMDCs; also recorded: significantly reduces Gr-1^+ myeloid BMDC infiltration; rCXCL12-induced migration of WT myeloid BMDCs ([7]; 1 μg/mL of AMD3100, rCXCL12 100 ng/mL, transwell assay): reversed; rCXCL12-induced migration of Gr-1+ BMDCs [8]: reversed

**Q.** With `C[S+]([O-])c1ccc(-c2nc(-c3ccncc3)c(-c3ccc(F)cc3)[nH]2)cc1` (centres unmarked) [SB203580] as the compound, how does the “migration of myeloid BMDCs” value ([7]; SB203580 1 μM, rVEGF or rCXCL12, irrespective of the chemotactic stimulus) read?
**A.** significantly reduced the migration of myeloid BMDCs; also recorded: decreased migration of myeloid BMDCs

**Q.** With `COc1cc2c(Oc3ccc4[nH]c(C)cc4c3F)ncnc2cc1OCCCN1CCCC1` [cediranib] as the compound, how does the “circulating CXCL12” value ([1]; recurrent GBM, P < 0.001) read?
**A.** therapy increases
